Reference: article PMC10531915, “A High-Throughput Small-Angle X-ray Scattering Assay to Determine the Conformational Change of Plasminogen” (International Journal of Molecular Sciences, 2023)
Several values for one entry are separate records, joined by “and”; a condition that tells them apart may be missing. Equal entries are not always repeated. Entries after “also recorded” stand apart in the source; their conditions may differ.

Experiments:
Plg GII = assay: HTP 96-well SAXS titration: ligand-induced closed-to-open conformational change of Plg GII; assay type: biochemical, human; details: for Plg conformational change (efficacy in words) / Rg: HTP SAXS; for Plg conformational change (efficacy in words): 0.5 mg/mL Plg, pH 7.4, 16 °C, MK12 up to 10 mM; for Kopen: concentration of ligand at which 50% of Plg GII is open, 0.5 mg/mL Plg GII, 100 mM sodium phosphate pH 7.4, 5% glycerol, 15–30 min incubation, 16 °C, Rg from SAXS, fit with Hill slope; for Fold (GII/GI) of Kopen: Kopen Plg GII / Kopen Plg GI; for Kopen for GII higher than for GI: Kopen Plg GII versus Plg GI; for Kopen of EACA relative to TXA, GII: EACA versus TXA; for Kopen fold lower than L-lysine: Kopen for L-lysine 7.47 ± 1.12 mM; on Rg: values in Å
Method: An HTP assay to study the kinetics of Plg conversion from a closed to an open state was established for this work using Plg GII (see Section 4 and Figure 2).
(§1) Figure 2 Overview of the high-throughput (HTP) kinetic studies of Plg conformational change. In this HTP assay, ligand-induced Plg conformational change is set up in a 96-well plate format. (a) Ligands at the study concentration are mixed with Plg and incubated for 30 min. (b,c) The samples flowed past the X-ray beam in a quartz capillary, and scattering images were collected. (d) The resulting 2D scattering profile is averaged and buffer subtracted. (e). Rg values are derived via Guinier analysis (f) and then normalized before plotting against ligand concentration. The plot is fitted to a multi-site binding model, and Kopen, the ligand concentration required to induce 50% open Plg, is derived. Kopen is a kinetic parameter indicative of ligand efficacy or stability of closed conformation.
(§2) EACA, TXA, and L-lysine were purchased from Sigma-Aldrich (St Louis, MO, USA), whereas peptides MK12, NK55, and CK10 were purchased from GL Biochem (Shanghai, China). Solutions of EACA, TXA, and L-lysine (0.5–1.0 M) were prepared in ultrapure water. The peptide ligands are slightly acidic and therefore were dissolved in 0.1 M NH4OH with gentle sonication. MK12 and CK10 were prepared as 20 mM stock solution, and NK55 was prepared as a 625 μM stock solution.
(§3) For the SEC-SAXS experiment, in-line size exclusion chromatography using a WTC-010S5 column (WYATT) with a co-flow setup was used. For the HTP assays, 1 mg/mL protein samples were mixed 1:1 (v/v) with effector solutions to a final volume of 50 μL in a 96-well plate and incubated for 15–30 min before data collection at 16 °C. The final protein concentration for these experiments was 0.5 mg/mL in the assay buffer unless otherwise specified.
For each sample, a matching buffer was used for background scatter subtraction. To minimize the effect of radiation damage, 50 μL samples were flowed past the X-ray beam in a 1.5 mm diameter quartz capillary at 4 μL.s^−1. Then, 15 to 20 2D scattering images were collected on a Pilatus 1M X-ray detector (Dectris, Baden-Daettwil, Swizerland) using 18 × 1 s exposures. The images were averaged, and the background was subtracted using the Scatterbrain software v.2.82 available at the Australian Synchrotron
For each titration series, the Rg values were normalized as follows: Normalized Rg=Rg− minimum Rg/maximum Rg− minimum Rg

Plg GI = assay: HTP 96-well SAXS titration: ligand-induced closed-to-open conformational change of Plg GI; assay type: biochemical, human; details: for Kopen: concentration of ligand at which 50% of Plg GI is open, 0.5 mg/mL Plg, 100 mM sodium phosphate pH 7.4, 5% glycerol, 15–30 min incubation, 16 °C, Rg from SAXS
Method: as §1
Thus, we also performed kinetics studies on GI and GII to verify this hypothesis using EACA and TXA in the HTP format (Figure S4, Table 1).
as §2, §3
For each sample, a matching buffer was used for background scatter subtraction. To minimize the effect of radiation damage, 50 μL samples were flowed past the X-ray beam in a 1.5 mm diameter quartz capillary at 4 μL.s^−1. […]

[1] = system: Plg, mixed glycoform sample; details: cited from earlier work
Method: To analyze the transition profiles of Plg recorded from the fully closed to the fully open forms, we fitted the kinetic data as follows: the Rg of Plg GII in 0 mM EACA (32 Å) was defined as closed. The Rg of Plg in 20 m ...

[2] = in vivo, up to, no reference given; cited from earlier work
Description: Importantly, our data support the notion that these lysine analogues can potentially outcompete the binding of Plg to its binding proteins Plg-RKT and α2AP (Figure S6) at a therapeutic dosage in vivo (plasma ...

Plg = Plg activation by tPA with chromogenic substrate S-2251 (Kactivation); details: Kactivation by tPA compared to Kopen; 0.25 μM Plg, 0.01 μM tPA, 1 h, 28 °C, 0.2 mM S-2251, A405 nm
[3] = SEC-SAXS and Guinier/P(r) analysis of Plg conformation; assay type: physicochemical, human; details: for Dmax (maximum diameter): P(r); for Rg (radius of gyration): SEC-SAXS, Guinier approximation; on all read-outs here: values in Å
Method: Plg was isolated and purified from human plasma from Red Cross Blood Bank Australia via three-step purification as previously described. Plg GI and GII were prepared with a TXA gradient (Figure S3). Closed Plg was prepared via exhaustive dialysis of purified protein into the assay buffer (100 mM sodium phosphate pH 7.4, 5% glycerol). Proteins were concentrated to 1 mg/mL in centrifugal filters (Merck Millipore, Burlington, MA, USA). The final filtrate was kept as a solvent blank for SAXS experiments.
Experiments were performed at the Australian Synchrotron SAXS/WAXS beamline using a fixed energy of 12 keV and a camera length of 2.6 m.
as §3
Averaged SAXS data were processed with the ATSAS 2.7.2 software package (EMBL Hamburg, Germany). PRIMUS [33] was used for determining the radius of gyration (Rg) and protein molecular weight via Guinier approximation and the particle distance distribution function P(r) using indirect Fourier transform.

[4] = open conformation, 10 mM EACA (Figure 1)

In the case of “398NPSAPRELKEQQDSPGNKDFLQSLKGFPRGDKLFGPDLKLVPPMEEDYPQFGSPK452 [NK55, peptide corresponding to the last 55 residues of α2AP]”, the “Plg conformational change (efficacy in words)” value (shortened to “Plg conformational change”) (Plg GII; Plg GII) is reported as “confers a higher efficiency in inducing conformational change”, the “more efficacious than CK10 (Kopen)” value (Plg GII; Plg GII, versus CK10) is reported as ~ 10 fold and the “more efficacious than L-lysine (Kopen)” value (Plg GII; Plg GII, versus L-lysine) is reported as ~ 100 fold. It also gave a Kopen (Plg GII) of 0.08 ± 0.05 mM.

With “441MEEDYPQFGSPK452 [MK12, peptide corresponding to the last 12 residues of α2AP]” the “Plg conformational change” value (Plg GII; Plg GII) was “did not observe any change in the SAXS profile of Plg GII; also recorded: could not detect any conformational change; also recorded: did not induce a conformational transition even at 10 mM; also recorded: not functional”.

With `NCCCCCC(=O)O` [EACA, ε-aminocaproic acid] the Hill slope (Plg GII; EACA titration 0–20 mM, Plg GII, positive cooperativity) was 1.5, the “Fold (GII/GI) of Kopen” value (Plg GII) was 1.75 and the “Kopen for GII higher than for GI” value (Plg GII) was ~ 1.75 fold. For the same molecule, the “Kopen of EACA relative to TXA, GII” value (Plg GII; Plg GII) was ~ 3 fold, the “Kopen of EACA relative to TXA, GII” value (Plg GII; Plg GII, listed as ε-aminocaproic acid (EACA)) was “approximately three times greater than that of tranexamic acid (TXA)” and the “Kopen fold lower than L-lysine” value (Plg GII; Plg GII) was 20 fold. For the same molecule, the Kopen (Plg GII) was 0.35 mM and 0.35 ± 0.02 mM, the “Kopen of EACA relative to TXA, GI” value (Plg GI; Plg GI, EACA versus TXA) was ~ 3 fold and the Kopen (Plg GI) was 0.20 ± 0.01 mM. The “Kopen (previously reported)” value [1] was 0.45 mM, the “plasma concentration at therapeutic dosage” value [2] was ~ 10 mM and the “Kactivation higher than Kopen” value (Plg) was > 8 fold.

With `NCCCC[C@H](N)C(=O)O` [L-lysine] the “Kopen fold relative to CK10” value (Plg GII; L-lysine concentration required versus CK10, Plg GII) was ~ 10 fold, the “Kopen fold relative to EACA” value (Plg GII; L-lysine concentration required versus EACA, Plg GII) was “more than 20 fold” and the “Plg conformational change” value (Plg GII; Plg GII) was “poor substrate”. For the same molecule, the Kopen (Plg GII) was 7.47 ± 1.12 mM.

With `NC[C@H]1CC[C@H](C(=O)O)CC1` [TXA, tranexamic acid] the “Fold (GII/GI) of Kopen” value (Plg GII) was 1.76, the “Kopen for GII higher than for GI” value (Plg GII) was ~ 1.75 fold and the “Plg conformational change” value (Plg GII; Plg GII) was “most efficacious ligand”. For the same molecule, the “Kopen fold lower than L-lysine” value (Plg GII; Plg GII) was 60 fold, the Kopen (Plg GII) was 0.12 ± 0.008 mM and the Kopen (Plg GI) was 0.068 ± 0.002 mM. For the same molecule, the “plasma concentration at therapeutic dosage” value [2] was ~ 1 mM and the “Kactivation higher than Kopen” value (Plg) was > 3.5 fold.

With “C139EQSKLFDSK147 [CK10, synthetic peptide corresponding to a C-terminal peptide of Plg-RKT]” the “Plg conformational change” value (Plg GII; Plg GII) was “highly efficacious” and the Kopen (Plg GII) was 0.73 ± 0.24 mM.

With “Plg GII: human plasminogen glycoform II, purified from human plasma” the “conformational stability of closed form” value (Plg GII; GII versus GI, from Kopen of EACA and TXA, listed as GII) was “more stable than that of GI”, the Rg (Plg GII; 0 mM EACA, defined as closed) was 32 Å and the Rg (Plg GII; 20 mM EACA, defined as open) was 49 Å. For the same molecule, the “Dmax (maximum diameter)” value ([3]; closed conformation (Figure 1)) was 105 Å, the “Dmax (maximum diameter)” value [3, 4] was 170 Å and the “diameter of approximate spheroidal particle” value ([3]; Porod plot, closed conformation) was ~78 Å. The “Rg of closed Plg” value ([3]; SEC-SAXS comparison of closed GI and GII (Figure 5)) was 31.8 ± 0.6 Å, the “Rg (radius of gyration)” value ([3]; closed conformation (Figure 1)) was 31.7 ± 0.11 Å and the “Rg (radius of gyration)” value [3, 4] was 48.8 ± 0.9 Å.
